# Laboratory results published in US11590116B2 (THERAVANCE BIOPHARMA R&D IP, LLC, priority 2019, dated 2023).
# What was measured:
# [1] = target: T1, recombinant human ALK5 (TGF-βR1) protein (Homo sapiens, UniProt P36897); assay: Biochemical ALK5 (TGF-βR1) assay to measure pKi (LANCE Ultra ULight kinase assay); settings: apparent pKi from pIC50 by Cheng-Prusoff, read-out: ALK5 pKi (converted)
# T1 construct: purchased Life Technologies PR9075A
# T1 sequence (P36897 34-503): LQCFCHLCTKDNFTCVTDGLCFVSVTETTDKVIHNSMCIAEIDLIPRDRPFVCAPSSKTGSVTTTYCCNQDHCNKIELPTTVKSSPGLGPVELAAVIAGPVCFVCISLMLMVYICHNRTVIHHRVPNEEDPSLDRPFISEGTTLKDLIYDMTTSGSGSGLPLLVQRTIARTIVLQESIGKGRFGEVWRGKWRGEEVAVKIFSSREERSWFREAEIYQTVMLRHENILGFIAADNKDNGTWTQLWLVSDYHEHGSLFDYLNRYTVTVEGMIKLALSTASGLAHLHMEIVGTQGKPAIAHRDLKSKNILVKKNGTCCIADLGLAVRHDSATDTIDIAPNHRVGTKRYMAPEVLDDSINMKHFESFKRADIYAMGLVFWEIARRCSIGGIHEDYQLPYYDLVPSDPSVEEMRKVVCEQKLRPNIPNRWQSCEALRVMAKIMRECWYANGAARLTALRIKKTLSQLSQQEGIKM
# Summary of the method: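 After a 60 min room-temperature preincubation of ALK5 with compound, phosphorylation proceeds 60 min at 37 °C on ATP addition (125 μM as 5× stock). Detection: Eu-labelled phospho-Thr1342 Topo IIα antibody in EDTA buffer, pH 7.0; emission 665 nm.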
# [2] = test system: TGF-β-stimulated SMAD3 phosphorylation in BEAS-2B cells; assay: Cellular ALK5 potency assay, inhibition of TGF-β stimulated pSMAD3 formation in BEAS-2B cells; type: cell-based; settings: Homo sapiens; inhibition of TGF-β stimulated pSMAD3 formation, BEAS-2B cells; read-out: BEAS2B pIC50 (converted)
# Summary of the method: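 SMAD3 phosphorylation was measured by AlphaLISA after 30 min TGF-β stimulation (10 ng/mL final) of BEAS-2B cells preincubated 1 h with compound at 37 °C. Results given as pIC50.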
Compound,Ki [1] [nM],IC50 [2] [nM]
"Cc1cccc(-c2[nH]cnc2-c2ccc3ncc(-c4ncc(C(=O)OCCN5CCNCC5)cn4)cc3c2)n1 [Compound 1125, 2-piperazin-1-ylethyl 2-[6-[5-(6-methyl-2-pyridyl)-1H-imidazol-4-yl]-3-quinolyl]pyrimidine-5-carboxylate]",< 0.0316,25.1 to 158
"Cc1cccc(-c2[nH]cnc2-c2ccc3ncc(-c4cccc(C(=O)O[C@@H]5CCNC5)n4)cc3c2)n1 [Compound 1126, [(3R)-pyrrolidin-3-yl] 6-[6-[5-(6-methyl-2-pyridyl)-1H-imidazol-4-yl]-3-quinolyl]pyridine-2-carboxylate]",< 0.0316,25.1 to 158
"Cc1cccc(-c2[nH]cnc2-c2ccc3ncc(-c4cccc(C(=O)OC5CNC5)n4)cc3c2)n1 [Compound 1128, azetidin-3-yl 6-[6-[5-(6-methyl-2-pyridyl)-1H-imidazol-4-yl]-3-quinolyl]pyridine-2-carboxylate]",0.0398 to 0.316,25.1 to 158
"CN[C@H]1CC[C@H](OC(=O)c2cnc3ccc(-c4nc[nH]c4-c4cccc(C)n4)cc3c2)CC1 [Compound 1129, [4-(methylamino)cyclohexyl] 6-[5-(6-methyl-2-pyridyl)-1H-imidazol-4-yl]quinoline-3-carboxylate]",0.0398 to 0.316,25.1 to 158
"Cc1cccc(-c2[nH]ncc2-c2ccc3nccc(C(=O)OC[C@H]4CC[C@@H](N)CC4)c3c2)n1 [Compound 1130, (4-aminocyclohexyl)methyl 6-[5-(6-methyl-2-pyridyl)-1H-pyrazol-4-yl]quinoline-4-carboxylate]",0.398 to 3.16,25.1 to 158
"Cc1cccc(-c2[nH]cnc2-c2ccc3ncc(-c4cnc(C(=O)OC5CCNCC5)nc4)cc3c2)n1 [Compound 1131, 4-piperidyl 5-[6-[5-(6-methyl-2-pyridyl)-1H-imidazol-4-yl]-3-quinolyl]pyrimidine-2-carboxylate]",0.0398 to 0.316,200 to 1260
"Cc1cccc(-c2[nH]cnc2-c2ccc3ncc(C(=O)OCCCC4CCNCC4)cc3c2)n1 [Compound 1132, 3-(4-piperidyl)propyl 6-[5-(6-methyl-2-pyridyl)-1H-imidazol-4-yl]quinoline-3-carboxylate]",0.0398 to 0.316,25.1 to 158
"Cc1cccc(-c2[nH]cnc2-c2ccc3ncc(-c4ccnc(C(=O)OC5CNC5)c4)cc3c2)n1 [Compound 1133, azetidin-3-yl 4-[6-[5-(6-methyl-2-pyridyl)-1H-imidazol-4-yl]-3-quinolyl]pyridine-2-carboxylate]",0.0398 to 0.316,200 to 1260
"Cc1cccc(-c2[nH]ncc2-c2ccc3nccc(C(=O)OCCC4CNC4)c3c2)n1 [Compound 1136, 2-(azetidin-3-yl)ethyl 6-[5-(6-methyl-2-pyridyl)-1H-pyrazol-4-yl]quinoline-4-carboxylate]",0.398 to 3.16,200 to 1260
"Cc1cccc(-c2[nH]cnc2-c2ccc3ncc(-c4cc(C(=O)O)ccn4)cc3c2)n1 [Compound 1137, 2-[6-[5-(6-methyl-2-pyridyl)-1H-imidazol-4-yl]-3-quinolyl]pyridine-4-carboxylic acid]",0.0398 to 0.316,1580 to 10000
"Cc1cccc(-c2[nH]cnc2-c2ccc3ncc(-c4cnc(C(=O)OCCN5CCNCC5)nc4)cc3c2)n1 [Compound 1138, 2-piperazin-1-ylethyl 5-[6-[5-(6-methyl-2-pyridyl)-1H-imidazol-4-yl]-3-quinolyl]pyrimidine-2-carboxylate]",0.398 to 3.16,200 to 1260
"Cc1cccc(-c2[nH]cnc2-c2ccc3ncc(-c4cc(C(=O)OC5CCNCC5)cs4)cc3c2)n1 [Compound 1139, 4-piperidyl 5-[6-[5-(6-methyl-2-pyridyl)-1H-imidazol-4-yl]-3-quinolyl]thiophene-3-carboxylate]",< 0.0316,25.1 to 158
"Cc1cccc(-c2[nH]cnc2-c2ccc3ncc(-c4ncc(C(=O)O)cn4)cc3c2)n1 [Compound 1140, 2-[6-[5-(6-methyl-2-pyridyl)-1H-imidazol-4-yl]-3-quinolyl]pyrimidine-5-carboxylic acid]",0.0398 to 0.316,200 to 1260
"Cc1cccc(-c2[nH]cnc2-c2ccc3ncc(-c4cc(C(=O)OCCN5CCNCC5)cs4)cc3c2)n1 [Compound 1141, 2-piperazin-1-ylethyl 5-[6-[5-(6-methyl-2-pyridyl)-1H-imidazol-4-yl]-3-quinolyl]thiophene-3-carboxylate]",0.0398 to 0.316,25.1 to 158
"Cc1cccc(-c2[nH]cnc2-c2ccc3ncc(-c4cnc(C(=O)O)nc4)cc3c2)n1 [Compound 1142, 5-[6-[5-(6-methyl-2-pyridyl)-1H-imidazol-4-yl]-3-quinolyl]pyrimidine-2-carboxylic acid]",0.398 to 3.16,1580 to 10000
"Cc1cccc(-c2[nH]cnc2-c2ccc3ncc(-c4ncc(C(=O)OCC5CNC5)cn4)cc3c2)n1 [Compound 1144, azetidin-3-ylmethyl 2-[6-[5-(6-methyl-2-pyridyl)-1H-imidazol-4-yl]-3-quinolyl]pyrimidine-5-carboxylate]",0.0398 to 0.316,25.1 to 158
"Cc1cccc(-c2[nH]cnc2-c2ccc3ncc(-c4nc(C(=O)OCCN5CCNCC5)cs4)cc3c2)n1 [Compound 1145, 2-piperazin-1-ylethyl 2-[6-[5-(6-methyl-2-pyridyl)-1H-imidazol-4-yl]-3-quinolyl]thiazole-4-carboxylate]",0.0398 to 0.316,25.1 to 158
"Cc1cccc(-c2[nH]cnc2-c2ccc3ncc(-c4csc(C(=O)OC5CCNCC5)n4)cc3c2)n1 [Compound 1146, 4-piperidyl 4-[6-[5-(6-methyl-2-pyridyl)-1H-imidazol-4-yl]-3-quinolyl]thiazole-2-carboxylate]",< 0.0316,25.1 to 158
"Cc1cccc(-c2[nH]cnc2-c2ccc3ncc(-c4csc(C(=O)OCC5CNC5)n4)cc3c2)n1 [Compound 1148, azetidin-3-ylmethyl 4-[6-[5-(6-methyl-2-pyridyl)-1H-imidazol-4-yl]-3-quinolyl]thiazole-2-carboxylate]",0.0398 to 0.316,25.1 to 158
"Cc1cccc(-c2[nH]cnc2-c2ccc3ncc(C(=O)O[C@@H]4CCNC4)cc3c2)n1 [Compound 1149, [(3R)-pyrrolidin-3-yl] 6-[5-(6-methyl-2-pyridyl)-1H-imidazol-4-yl]quinoline-3-carboxylate]",0.398 to 3.16,200 to 1260
"Cc1cccc(-c2[nH]cnc2-c2ccc3ncc(C4=CCN(C(=O)C5CCCNC5)CC4)cc3c2)n1 (stereo not shown) [Compound 1150, [4-[6-[5-(6-methyl-2-pyridyl)-1H-imidazol-4-yl]-3-quinolyl]-3,6-dihydro-2H-pyridin-1-yl]-(3-piperidyl)methanone]",0.0398 to 0.316,25.1 to 158
"Cc1cccc(-c2[nH]cnc2-c2ccc3ncc(-c4cccc(C(=O)OCCN5CCNCC5)n4)cc3c2)n1 [Compound 1151, 2-piperazin-1-ylethyl 6-[6-[5-(6-methyl-2-pyridyl)-1H-imidazol-4-yl]-3-quinolyl]pyridine-2-carboxylate]",0.0398 to 0.316,200 to 1260
"Cc1cccc(-c2[nH]cnc2-c2ccc3ncc(-c4csc(C(=O)O)n4)cc3c2)n1 [Compound 1152, 4-[6-[5-(6-methyl-2-pyridyl)-1H-imidazol-4-yl]-3-quinolyl]thiazole-2-carboxylic acid]",< 0.0316,< 20
